The values below are quoted from earlier work in paper PMC10177510, “A Multicenter, Open-Label, Phase I/II Study of FN-1501 in Patients with Advanced Solid Tumors” (Cancers, 2023).

The data set deals with MV-4-11. The conditions noted are these: cited from earlier work.

Values after ≈ are worked out from the molar mass of the structure shown.

With `CCc1nc(C(N)=O)c(Nc2ccc(N3CCC(N4CCN(C)CC4)CC3)c(OC)c2)nc1NC1CCOCC1` [gilteritinib, reference compound], the half-inhibitory concentration (IC50) is 0.5 ng/mL (≈ 0.905 nM).
